Patent US10434133B2, “Inflammation-suppressing composition including peptide” (KIRIN KABUSHIKI KAISHA, priority 2015, dated 2019)

Test system: microglia
Experiment: TNF-α production of LPS/IFN-γ-stimulated isolated microglia (Test Examples 1 to 3)
Format: cell-based, mouse
Details: peptides at 10 μM and 50 μM; FIG. 2
Description: Microglia were isolated from the mouse brain by the magnetic cell sorting method. Specifically, the brain removed from a mouse was treated with papain to obtain a brain tissue dispersion and the enzyme reaction was stopped. Subsequently, the dispersion was reacted to CD11b antibody (manufactured by Miltenyi Biotec), a common microglia marker magnetically labelled with superparamagnetic microbeads, to carry out magnetic separation whereby microglia were isolated. The isolated microglia cell was cultured for 12 hours in medium to which the above 336 dipeptides were added in a concentration of 50 μM each. Subsequently, 5 ng/ml of lipopolysaccharide (LPS, manufactured by SIGMA-ALDRICH) and 0.5 ng/ml of IFN-γ (manufactured by R&D system) were added thereto, the cell was further cultured for 12 hours and TNF-α contained in the culture supernatant was quantitatively determined using an ELISA kit (manufactured by eBioscience). […] Note that the results are average values of three consecutive data. Additionally, hereinafter the amino acids are shown in one-letter abbreviations. […] Note that, for the control, those cultured with no addition of the peptides were used as in Test Example 1. For comparison, the dipeptides having the same amino acid composition with different sequences, that it, VD and HL were also measured for the TNF-α production at different concentrations.

For “TDVE: tetrapeptide having DV as the core sequence”, the “inflammation suppression effect against microglia (TNF-α)” value was “the most intense”.
